In patent publication US4812443A, “Methods for enhancing differentiation and proliferation of hematopoietic progenitor cells” (Kuraray Co., Ltd., priority 1984, dated 1989):
“Also recorded” adds a separate entry of the source.

Assays:
erythropoiesis = experiment: Erythropoiesis in vivo, 59Fe incorporation in phenylhydrazine-induced anemic mice (Run 6); set-up: species or system mouse (BDF1-strain); conditions: 250 mg/kg twice i.p.
Procedure: Phenylhydrazine was administered to normal mice and hereditarily anemic mice to induce severe hemolytic anemia. Then, the rate of erythropoiesis during recovering of anemia was determined by measuring the rate of radioactive iron (^59 Fe) incorporation into newly formed red blood cells [P. M. Cotes, D. R. Bangham, Nature (London), 191, 1067 (1961)]. The testing method and results are described below.
Phenylhydrazine hydrochloride (60 mg/kg) dissolved in normal saline solution was subcutaneously injected into BDF1 -strain mice (6 weeks old, female) three times, namely on the 1st, 2nd and 4th day of the experiment to produce phenylhydrazine-induced anemic mice. Dolichol in a dose of 250 mg/kg (25 mg of dolichol was emulsified in 1 ml of a 1% aqueous solution of sodium carboxymethyl cellulose; 0.2 ml/20 g of the body weight) was intraperitoneally administered to the mice twice, namely on the 1st and 2nd day. […] On the 6th day, 0.5 ml of the whole blood was taken from each mouse, and the radioactivity of ^59 Fe incorporated into the whole blood during the period of 48 hours was measured by an auto-gamma-counter. […] By assuming that the amount of the whole blood of each mouse was 7% of the body weight, the ^59 Fe incorporation rates were calculated in accordance with the following equation and averaged. […]

extracted ileum = experiment: Peripheral action, extracted ileum of guinea pigs; set-up: species or system guinea pig (Hartley-strain); conditions: up to 10^-4 g/ml; 32° C.
Source text: (§1) Since the dolichol is a water-insoluble oily liquid, it was used as a solution in sesame oil in the case of oral administration, and as a suspension in a nonionic surfactant (HCO-60, a trade name for a product of Nikko Chemical Co., Ltd.) in the case of intraperitoneal administration and in an in vitro test in the following experiment.
In the following experiment, ddY-strain male mice, Wistar-strain male rats (Shizuoka Laboratory Animal Center), Japanese white male rabbits (Carely) and Hartley-strain male guinea pigs (Clea Japan Inc.) were used. The animals were kept under conditions including a temperature of 23±1° C., a humidity of 55±10%, an illuminating time (7:00 am to 9.00 pm) and 15 ventilations per hour. […]
Hartley-strain male guinea pigs (350 to 400 g), 3 per group, were used, and the extracted ileum samples were suspended in Tyrode solution at 32° C. through which air was introduced. The contraction of the ileum was recorded on an ink-writing oscillograph (EMP-3004, Nippon Photoelectric Co. through an isotonic transducer (TD-112S, Nippon Photoelectric Co.). The direct action of dolichol and the antagonistic action of dolichol against acetylcholine, histamine and nicotine in a concentration of 10^-6 g/ml, 10^-5 g/ml, and 10^-4 g/ml, respectively, were examined.

blood coagulation system = experiment: Effect on the blood coagulation system in rats (Quick's one-step method); format: in vivo, rat (Wistar-strain); conditions: 150, 300 and 600 mg/kg; two hours after administration; vs control
Source text: as §1
(§2) In the following experiment, ddY-strain male mice, Wistar-strain male rats (Shizuoka Laboratory Animal Center), Japanese white male rabbits (Carely) and Hartley-strain male guinea pigs (Clea Japan Inc.) were used. The animals were kept under conditions including a temperature of 23±1° C., a humidity of 55±10%, an illuminating time (7:00 am to 9.00 pm) and 15 ventilations per hour. The mice and rats were fed with solid feeds MF (a product of Oriental Yeast Co., Ltd.) and the guinea pigs and rabbits were fed with solid feeds GM-3 and RM-1 (Funabashi Farm Co.). They were allowed to take tap water freely. The animals were preliminarily kept for more than one week, and those which were healthy in general conditions were used in the experiments.
Wistar-strain male rats (180-210 g), 6 per group, were used. Two hours after administration of dolichol to rats, the blood was taken from the abdominal main vein of the rats, and the prothrombin time was measured by the Quick's one-step method.

blood sugar = experiment: Blood sugar lowering action in rats (glucose-oxidase method); format: in vivo, rat (Wistar-strain); conditions: 150, 300 and 600 mg/kg; two hours after administration; vs control
Source text: as §1, §2
Wistar-strain male rats (180-210 g), 6 per group, were used. Two hours after administration of dolichol to the rats, the blood was taken from the abdominal main vein of the rats, and the blood sugar level was measured by the glucose-oxidase method.

Diuretic action in rats = format: in vivo, rat (Wistar-strain); conditions: 150, 300 and 600 mg/kg; 6 hours after administration; vs control
Source text: as §1, §2
Wistar-strain male rats (80-90 g), 6 per group, were used. Immediately after administration of dolichol to the rats, normal saline solution was orally administered to the rats in a dose of 2.5 ml/100 g. […] Urine was taken 6 hours after administration of dolichol, and its amount was measured.

[1] = test system: reserpine-induced blepharoptosis; experiment: Reserpine antagonistic action in mice; format: in vivo, mouse (ddY-strain); conditions: 150, 300 and 600 mg/kg; reserpine 4 mg/kg i.p.; one hour after administration; vs control
Source text: as §1
as §2, with “The animals were preliminarily kept for more than one week, and those which were healthy in general conditions were used in the experiments.” left out
ddY-strain male mice (27-30 g), 6 per group, were used. […] One hour after the administration of dolichol, the degree of blepharoptosis in the mice was observed and recorded in accordance with the Rubin's standards of evaluation (0: normal opening of the eyes, 1: 1/4 blepharoptosis, 2: 1/2 blepharoptosis, 3: 3/4 blepharoptosis, 4: complete blepharoptosis).

[2] = test system: maximal electroshock seizure; experiment: Anticonvulsive action (maximal electroshock seizure) in mice; format: in vivo, mouse (ddY-strain); conditions: 150, 300 and 600 mg/kg; one hour after administration; 40 mA, 0.4 msec, 50 Hz, 0.5 sec; vs control
Source text: as §1, §2
ddY-male mice (27-30 g), 6 per group, were used. One hour after administration of dolichol to the mice, an electric current was passed through the corneas of the mice under conditions of 40 mA, 0.4 msec, 50 Hz and 0.5 sec, and the time of duration of tonic extension (T. E.) was measured.

corneal reflex = experiment: Local anesthetic action in guinea pigs (corneal reflex); format: in vivo, guinea pig (Hartley-strain); conditions: up to 0.1%, dropped into the eyes
Source text: as §1, §2
Hartley-strain male guinea pigs (370-440 g), 3 per group, were used. Dolichol was dropped in a concentration of 0.001%, 0.01% and 0.1%, respectively, into the eyes of the guinea pigs. […]

Water solubility = format: physicochemical

dolichol
59Fe incorporation rate (%), dolichol administered group (erythropoiesis; 48 hours, control group 48.2): 50.2%
Erythropoiesis enhancing ratio (%) (erythropoiesis; percent increase of 59Fe incorporation rate vs control): +4.2%
Direct action on extracted ileum (extracted ileum): no direct action
Prothrombin time (blood coagulation system): tended to become longer; also recorded: no significant difference was noted
Blood sugar level (blood sugar): no significant difference was noted
Diuretic action (amount of urine) (Diuretic action in rats): no significant difference was noted
Antagonistic action against reserpine-induced blepharoptosis [1]: no antagonistic action
Time of duration of tonic extension (T. E.) [2]: no significant difference was noted
Disappearance of corneal reflex (corneal reflex): no disappearance of corneal reflex
Local anesthetic action (corneal reflex): no local anesthetic action was observed
Water solubility (Water solubility): water-insoluble
